Assay results: US10869871B2, “Compositions and methods of modulating short-chain dehydrogenase activity” (CASE WESTERN RESERVE UNIVERSITY, priority 2013, dated 2020)

Tests used:
cell culture = experiment: Toxicity: concentration needed to decrease cell numbers in a cell culture assay; assay type: cell-based
Method: (§1) Time to inhibition refers to the time needed to inhibit the generation of NADH by 15-PGDH from the moment with drug is added into the reaction mix. Delta Tm refers to the shift in melting temperature of recombinant 15-PGDH in the presence of drug (with cofactor NADH also present). Concentration of Full Cell Line Reporter Induction refers to the concentration of drug that needs to be added to reporter cell line to achieve maximal induction of the 15-PGDH-luciferase gene fusion reporter cassette, as measured by luciferase assays. Hepatocyte stability refers to the half-life of compound in the presence of hepatocytes in culture. Toxicity refers to the concentration of compound needed to decrease cell numbers in a cell culture assay.

colon = experiment: Dextran sodium sulfate (DSS) induced colitis in FVB mice; assay type: in vivo, mouse; details: 22 days of study
[1] = Survival of lethally irradiated mice after bone marrow transplant (30 days); assay type: in vivo, mouse; details: 5 mg/kg IP bid
From the text: A matched control cohort received injections with vehicle only. On day one mice received an infusion of donor marrow at doses of 100,000 cells; 200,000 cells; or 500,000 cells. […] Among mice receiving 200,000 donor cells, all control mice were dead by day 12.

[2] = test system: 15-PGDH-luciferase fusion reporter in V9m, LS174T and V503 colon cancer cell lines; experiment: 15-PGDH-luciferase fusion reporter induction in colon cancer cell lines; assay type: cell-based; details: V9m, LS174T, V503; relative to DMSO
Hepatocyte stability = assay type: in vitro ADME; details: compound in presence of hepatocytes in culture; in words
Method: as §1

bone marrow = experiment: Bone marrow analysis of C57BL/6J mice treated IP; assay type: in vivo, mouse; details: IP 5 mg/kg or 20 mg/kg
From the text: FIGS. […] Experimental conditions are noted on the figure.

CCCC[S+]([O-])c1sc2nc(-c3cccs3)cc(-c3ccccc3)c2c1N (stereo not shown) [SW033291, 2-(butylsulfinyl)-4-phenyl-6-(thiophen-2-yl)thieno[2,3-b]pyridin-3-amine]
Toxicity (cell culture): >10 µM | change from baseline weight versus control (colon): greater weight at all time points | median survival versus control ([1]; 100,000 donor cells): approximate doubling of median survival | survival at 30 days ([1]; 500,000 donor cells): all survived | luciferase activity of 15-PGDH luciferase fusion cells [2]: increase luciferase activity | Hepatocyte stability (Hepatocyte stability): Stable > couple hrs | percent of Sca1+/c-Kit+ lineage negative (SKL) cells (bone marrow): unchanged
